This is an account of results in patent US20230339981A1, “KRAS G12D MODULATING COMPOUNDS” (priority 2022, published 2023).

For one assay, the system named is AsPC-1 (KRAS G12D) cells. Nature of the assay: 3D cell viability assay (spheroids, CellTiter-Glo 3D). It is filed as cell-based. The settings on record: AsPC-1 cells, 3D spheroids, 4 days. The protocol:
Example C. 3D Cell Viability Assay
Compounds were tested in a 384-well format for their ability to inhibit the viability of AsPC-1 (KRAS G12D) cells in 3D assays. On day 0, 1000 cells/well (80 μL volume per well) in DMEM with 10% FBS, and Penicillin-Streptomycin-Glutamine were plated in 384-well Ultra-Low Attachment Spheroid Microplates (Corning, Catalog #3830) on the BioTEK EL406 liquid dispenser with a 5 μL dispensing cassette (BioTek 7170011). The plates were incubated at 37° C., 5% CO2 for 3 days to allow spheroid formation. On day 3, compounds were serially diluted (1:3) in DMSO. The Biomek FX was used to add 400 nL of test molecule per well. The plates were incubated at 37° C., 5% CO2 for 4 days before addition of CellTiter-Glo 3D (Promega, Catalog #9683) reagent and measurement of luminescence signal. EC50 values were defined as the compound concentration that causes a 50% decrease in luminescence signal and were calculated using a sigmoidal dose-response model to generate curve fits.
Background: ATP-based viability assays read luminescence as a measure of living cells.

The target of another assay is GDP-loaded KRAS G12D (Homo sapiens (Human), UniProt P01116, G12D). The experiment in a line: KRAS G12D (GDP) biochemical assay (TR-FRET probe displacement). It is filed as binding. As to conditions: 2 hours. Put shortly: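 TR-FRET probe displacement: 1:3 DMSO serial dilutions pre-incubated 30 min with GDP-bound KRAS G12D, followed by Eu-streptavidin/probe for 2 h at room temperature (Hepes pH 7.4, NaCl, MgCl2, Tween-20 buffer). IC50 defined as concentration halving TR-FRET ratio, from sigmoidal dose-response fit.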
On the technique in general: Time-resolved FRET reads energy transfer from a long-lived donor to a nearby acceptor.

A further assay concerns GP2D (KRAS G12D) cells. The experiment in a line: 2D cell viability assay (CellTiter-Glo). The format is cell-based. The settings on record: 4 days. Put shortly: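 Viability was read by CellTiter-Glo after 4 days at 37 °C of 2D culture of KRAS G12D GP2D cells (1000/well, RPMI, 10% FBS) on pre-spotted threefold compound dilutions. EC50 was fitted with a sigmoidal dose-response model as the point of half-maximal luminescence loss.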

For orientation: EC50 means the concentration giving half of the maximal effect. Read a high EC50 as a need for much substance. What is called IC50 is the concentration that gives 50% inhibition. Low values mean greater potency in that assay, high ones weaker potency in that assay. As for “4-((5S,5aS,6S,9R)-5-ethyl-1-fluoro-12-(((2R,7aS)-2-fluorotetrahydro-1H-pyrrolizin-7a(5H)-yl)methoxy)-5a,6,7,8,9,10-hexahydro-5H-4-oxa-3,10a,11,13,14-pentaaza-6,9-methanonaphtho[1,8-ab]heptalen-2-yl)-5-ethynyl-6-fluoronaphthalen-2-ol [Example 80]”, the EC50 in the assay with AsPC-1 (KRAS G12D) cells is 2 nM; with GP2D (KRAS G12D) cells, 2.2 nM. Also, at GDP-loaded KRAS G12D, the IC50 turned out to be 0.1 nM.
With `C#Cc1c(F)ccc2cccc(-c3nc4c5c(nc(OC[C@@]67CCCN6C[C@H](F)C7)nc5c3F)N3C[C@H]5CC[C@H](N5)C3C[C@@H]4C)c12` (stereo in doubt) [Example 93, (4S,5aS,6S,9R)-2-(8-ethynyl-7-fluoronaphthalen-1-yl)-1-fluoro-12-(((2R,7aS)-2-fluorotetrahydro-1H-pyrrolizin-7a(5H)-yl)methoxy)-4-methyl-4,5,5a,6,7,8,9,10-octahydro-3,10a,11,13,14-pentaaza-6,9-methanonaphtho[1,8-ab]heptalene], the EC50 worked out at 82 nM in the assay on AsPC-1 (KRAS G12D) cells (Homo sapiens, ASPC1, 96 h) and 26.6 nM in the assay on GP2D (KRAS G12D) cells (GP2d, 96 h). For the same compound, at GDP-loaded KRAS G12D, the IC50 was 2.5 nM.
For `C#Cc1c(F)ccc2cc(O)cc(-c3nc4c5c(nc(OC[C@@]67CCCN6C[C@H](F)C7)nc5c3F)N3C[C@H]5CC[C@H](N5)C3C[C@@H]4C)c12` (stereo in doubt) [Example 94, 5-ethynyl-6-fluoro-4-((4S,5aS,6S,9R)-1-fluoro-12-(((2R,7aS)-2-fluorotetrahydro-1H-pyrrolizin-7a(5H)-yl)methoxy)-4-methyl-4,5,5a,6,7,8,9,10-octahydro-3,10a,11,13,14-pentaaza-6,9-methanonaphtho[1,8-ab]heptalen-2-yl)naphthalen-2-ol] the same measures were 2.2 nM, 0.6 nM and 0.1 nM.
For the compound `C#Cc1c(F)ccc2cc(O)cc(-c3nc4c5c(nc(OC[C@@]67CCCN6C[C@H](F)C7)nc5c3F)N3C[C@H]5CC[C@H](N5)C3C[C@H]4C)c12` (stereo in doubt) [Example 96, 5-ethynyl-6-fluoro-4-((4R,5aS,6S,9R)-1-fluoro-12-(((2R,7aS)-2-fluorotetrahydro-1H-pyrrolizin-7a(5H)-yl)methoxy)-4-methyl-4,5,5a,6,7,8,9,10-octahydro-3,10a,11,13,14-pentaaza-6,9-methanonaphtho[1,8-ab]heptalen-2-yl)naphthalen-2-ol], the half-maximal effective concentration (EC50) came to 1.9 nM in the assay with AsPC-1 (KRAS G12D) cells (Homo sapiens, ASPC1, 96 h) and 0.5 nM in the assay with GP2D (KRAS G12D) cells (GP2d, 96 h). On GDP-loaded KRAS G12D, this compound yielded an IC50 of 0.3 nM.
For `C#Cc1c(F)ccc2cc(O)cc(-c3nc4c5c(nc(OC[C@@]67CCCN6C[C@@H](OC(C(F)(F)F)(C(F)(F)F)C(F)(F)F)C7)nc5c3F)N3C[C@H]5CC[C@H](N5)[C@H]3CC4)c12` (stereo in doubt) [Example 134, 5-ethynyl-6-fluoro-4-((5aR,6S,9R)-1-fluoro-12-((cis-2-((1,1,1,3,3,3-hexafluoro-2-(trifluoromethyl)propan-2-yl)oxy)tetrahydro-1H-pyrrolizin-7a(5H)-yl)methoxy)-4,5,5a,6,7,8,9,10-octahydro-3,10a,11,13,14-pentaaza-6,9-methanonaphtho[1,8-ab]heptalen-2-yl)naphthalen-2-ol] the same measures were 31 nM, 2.2 nM and 0.5 nM.
For `C#Cc1c(F)ccc2cc(O)cc(-c3nc4c5c(nc(OC[C@]67CCCN6C[C@@H](OC(F)(F)F)C7)nc5c3F)N3C[C@H]5CC[C@H](N5)[C@H]3CC4)c12` (stereo in doubt) [Example 141, 5-ethynyl-6-fluoro-4-((5aR,6S,9R)-1-fluoro-12-((trans-2-(trifluoromethoxy)tetrahydro-1H-pyrrolizin-7a(5H)-yl)methoxy)-4,5,5a,6,7,8,9,10-octahydro-3,10a,11,13,14-pentaaza-6,9-methanonaphtho[1,8-ab]heptalen-2-yl)naphthalen-2-ol] the same measures were 3.7 nM, 0.4 nM and 0.2 nM.
As to `C#Cc1c(F)ccc2cc(O)cc(-c3nc4c5c(nc(OCC6(CN7CCC8(CC7)CC8)CC6)nc5c3F)N3C[C@H]5CC[C@H](N5)[C@H]3CC4)c12` [Example 177, 4-((5aR,6S,9R)-12-((1-((6-azaspiro[2.5]octan-6-yl)methyl)cyclopropyl)methoxy)-1-fluoro-4,5,5a,6,7,8,9,10-octahydro-3,10a,11,13,14-pentaaza[6,9]methanonaphtho[1,8-ab]heptalen-2-yl)-5-ethynyl-6-fluoronaphthalen-2-ol], the EC50 with AsPC-1 (KRAS G12D) cells (Homo sapiens, ASPC1, 96 h) came out at 20 nM; in the assay with GP2D (KRAS G12D) cells (GP2d, 96 h), 1.5 nM.
Consider `C#Cc1c(F)ccc2cccc(-c3nc4c5c(nc(OC[C@@]67CCCN6[C@H](COc6ncncc6C(F)F)CC7)nc5c3F)N3C[C@H]5CC[C@H](N5)[C@H]3CCC4)c12` [Example 206, (6aR,7S,10R)-13-(((3S,7aS)-3-(((5-(difluoromethyl)pyrimidin-4-yl)oxy)methyl)tetrahydro-1H-pyrrolizin-7a(5H)-yl)methoxy)-2-(8-ethynyl-7-fluoronaphthalen-1-yl)-1-fluoro-5,6,6a,7,8,9,10,11-octahydro-4H-3,11a,12,14,15-pentaaza-7,10-methanocyclohepta[4,5]cycloocta[1,2,3-de]naphthalene], for which the IC50 on GDP-loaded KRAS G12D was determined as 0.04 nM. The compound also showed an EC50 in the assay on GP2D (KRAS G12D) cells (GP2d, 96 h) of 1.6 nM.
For `C#Cc1c(F)ccc2cccc(-c3nc4c5c(nc(OC[C@@]67CCCN6[C@H](COc6nccnc6C(F)F)CC7)nc5c3F)N3C[C@H]5CC[C@H](N5)[C@H]3CCC4)c12` [Example 207, (6aR,7S,10R)-13-(((3S,7aS)-3-(((3-(difluoromethyl)pyrazin-2-yl)oxy)methyl)tetrahydro-1H-pyrrolizin-7a(5H)-yl)methoxy)-2-(8-ethynyl-7-fluoronaphthalen-1-yl)-1-fluoro-5,6,6a,7,8,9,10,11-octahydro-4H-3,11a,12,14,15-pentaaza-7,10-methanocyclohepta[4,5]cycloocta[1,2,3-de]naphthalene] the same measures were 0.06 nM and 1 nM.
For `C#Cc1c(F)ccc2cccc(-c3nc4c5c(nc(OC[C@@]67CCCN6[C@H](COc6ccnc(C(F)F)n6)CC7)nc5c3F)N3C[C@H]5CC[C@H](N5)[C@H]3CCC4)c12` [Example 208, (6aR,7S,10R)-13-(((3S,7aS)-3-(((2-(difluoromethyl)pyrimidin-4-yl)oxy)methyl)tetrahydro-1H-pyrrolizin-7a(5H)-yl)methoxy)-2-(8-ethynyl-7-fluoronaphthalen-1-yl)-1-fluoro-5,6,6a,7,8,9,10,11-octahydro-4H-3,11a,12,14,15-pentaaza-7,10-methanocyclohepta[4,5]cycloocta[1,2,3-de]naphthalene] the same measures were 0.09 nM and 3.3 nM.
With “(6aR,7S,10R)-2-(8-ethynyl-7-fluoronaphthalen-1-yl)-1-fluoro-13-(((3S,7aS)-3-(((2-(trifluoromethyl)pyrimidin-4-yl)oxy)methyl)tetrahydro-1H-pyrrolizin-7a(5H)-yl)methoxy)-5,6,6a,7,8,9,10,11-octahydro-4H-3,11a,12,14,15-pentaaza-7,10-methanocyclohepta[4,5]cycloocta[1,2,3-de]naphthalene [Example 153]”, the 50% inhibitory concentration (IC50) at GDP-loaded KRAS G12D stood at 0.3 nM. In the assay on GP2D (KRAS G12D) cells, this compound registered an EC50 of 4.3 nM.
